We go through one substance from article PMC2225439, “Amyloid as a Depot for the Formulation of Long-Acting Drugs” (PLoS Biology, 2008).

The KD is the free concentration of one partner at which half of the binding sites on the other are occupied at equilibrium, for simple one-to-one binding. Low readings indicate tighter binding, high ones weaker binding.

The nature of this data set: Peptide release from amyloid (dialysis experiment). As to conditions: 3.5-kDa MWCO, room temperature, 35 d. Here is the method: Although amyloid fibrils are very stable, they must follow thermodynamic equilibrium conditions between fibril and monomer. […] A total of 200 μl of 30-d-old GnRH analog (in) was dialyzed 4 ml of 5% D-mannitol (out). A 3.5-kDa cutoff, which is twice the size of the peptides studied, was chosen to ensure that the released particles are most likely monomeric. The peptide release and the remaining aggregates were monitored by fluorescence over 35 d at room temperature.
A 200-μl aliquot of aged GnRH in solution conditions given above was transferred into a 0.6-ml Eppendorf tube with a hole in the cap. To study the effect of heparin on peptide release, a mixture of hormone analog and heparin (1:1 v/v) was incubated overnight in parallel with a half-diluted peptide fibril sample in 5% D-mannitol and 0.01% sodium azide. The hole in the cap of the Eppendorf tube was sealed with a 3.5-kDa molecular weight cutoff (MWCO) membrane. Next, the Eppendorf tube was inserted upside down into a 15-ml Falcon tube containing 4 ml of 5% D-mannitol in water and 0.01% sodium azide. Care was taken to make sure that the membrane was exposed to solutions both in and outside and that any bubbles at the membrane interface were removed. The tubes were then incubated at room temperature. To measure the remaining peptide concentration inside the 0.6-ml Eppendorf tube, a 5-μl aliquot was diluted into 500 μl water with 5% D-mannitol, 0.01% sodium azide, and the fluorescence was measured with excitation at 280 nm and emission in the range of 290–500 nm. The excitation slit width was 2 nm, and emission slit width was 11 nm. To determine the peptide concentration outside the membrane in the 15-ml tube, an aliquot of 250 μl of solution was taken from the releasing medium, diluted into 500 μl final volume by 5% D-mannitol, 0.01% sodium azide, and fluorescence was measured. Following spectra recording, the dialysis system was reassembled as described above. […] The normalized intensity maxima from inside and outside the membrane were plotted as a function of time and fit by an exponential function to extract the half-life of the fibrils and the K off, respectively. […] The extracted half-life, t 1/2, is the time taken, during which the fluorescence signal inside the 0.6-ml Eppendorf tube drops by 50%.

For the setting “dissociation constant of the aggregates = final monomer concentration, 200 μl of 30-d-old analog dialyzed against 4 ml 5% D-mannitol, fluorescence ex 280 nm”, “Ac-DNal-DCpa-Agl(Nic)-Ser-Aph(Ac)-DAph(Ac)-Leu-ILys-Pro-DAla-NH2 [L20]” yielded a KD of 8 µM. Further, the t1/2 (half-life of fibrils: time in which fluorescence inside drops by 50%, dialysis of 30-d-old analog, 5% D-mannitol, exponential fit, 2 d = intrinsic diffusion of monomer) was 35 days.
